We go through 27 compounds from patent US10689381B2 (priority 2017, dated 2020).

In experiment [1] the test system is HCT116. Description: cells. The format is cell-based, human. The settings on record: for IC50: read-out: IC50 HCT116; for potency relative to vinblastine (more potent): vinblastine-sensitive cell lines. How it is done:
(§1) A population of cells (>1×10^6 cells/mL as determined with a hemocytometer) was diluted with Dulbecco's Modified Eagle Medium (DMEM, Gibco) containing 10% fetal bovine serum (FBS, Gibco) to give a final concentration of 30,000 cells/mL. To each well of a 96-well plate (Corning® Costar®) was added 100 μL of the cell media solution with a multichannel pipet.
(§2) The test compounds were then added to the plate as follows: test compounds were diluted in DMSO to a concentration of 1 mM. 10-Fold serial dilutions in DMSO were next performed on a separate 96-well plate. Fresh culture media (100 μL) was added to each well of cells resulting in 200 μL of medium per well followed by 2 μL of each test agent. Compounds were tested in duplicate (n=2-8 times) at six concentrations between 0-1000 nM or 0-10000 nM. Following the addition of compound, cultures were incubated for an additional 72 hours.
(§3) The plates were incubated at 37° C. for 5 minutes (L1210) or 15 min (HCT116 and HCT116/VM46).

Experiment [2] relates to L1210. Nature of the experiment: cells. The format is cell-based, mouse. How it is done: as §1, §2, §3

Where two headings read alike, the source gives them in different places.

The IC50 is the midpoint of a concentration-inhibition curve. For `CC[C@]1(NC(=O)c2cccc(S(=O)(=O)F)c2)C[C@H]2CN(CCc3c([nH]c4ccccc34)[C@@](C(=O)OC)(c3cc4c(cc3OC)N(C)[C@H]3[C@@](O)(C(=O)OC)[C@H](OC(C)=O)[C@]5(CC)C=CCN6CC[C@]43[C@@H]65)C2)C1` [Compound 89], the figures for the half-inhibitory concentration (IC50) in experiment [1] (Table 2) and in experiment [2] (Table 2) were 30 nM and 40 nM, respectively.

Take `CC[C@]1(NC(=O)c2ccc(OC(C)(C)C)cc2)C[C@H]2CN(CCc3c([nH]c4ccccc34)[C@@](C(=O)OC)(c3cc4c(cc3OC)N(C)[C@H]3[C@@](O)(C(=O)OC)[C@H](OC(C)=O)[C@]5(CC)C=CCN6CC[C@]43[C@@H]65)C2)C1` [Compound 75]: the IC50 in experiment [1] (Table 2) and in experiment [2] (Table 2) was 0.6 nM each time.

For `CC[C@]1(NC(=O)c2cc3ccccc3o2)C[C@H]2CN(CCc3c([nH]c4ccccc34)[C@@](C(=O)OC)(c3cc4c(cc3OC)N(C)[C@H]3[C@@](O)(C(=O)OC)[C@H](OC(C)=O)[C@]5(CC)C=CCN6CC[C@]43[C@@H]65)C2)C1` [Compound 160], the half-inhibitory concentration (IC50) was determined as 1.1 nM in experiment [1] (Table 6) and 1.8 nM in experiment [2] (Table 6).

As to `CC[C@]1(NC(=O)c2ccccc2C)C[C@H]2CN(CCc3c([nH]c4ccccc34)[C@@](C(=O)OC)(c3cc4c(cc3OC)N(C)[C@H]3[C@@](O)(C(=O)OC)[C@H](OC(C)=O)[C@]5(CC)C=CCN6CC[C@]43[C@@H]65)C2)C1` [Compound 27], the IC50 amounted to 50 nM in experiment [1] (Table 2) and 55 nM in experiment [2] (Table 2).

For the compound `C=CC(=O)N[C@@]1(CC)C[C@H]2CN(CCc3c([nH]c4ccccc34)[C@@](C(=O)OC)(c3cc4c(cc3OC)N(C)[C@H]3[C@@](O)(C(=O)OC)[C@H](OC(C)=O)[C@]5(CC)C=CCN6CC[C@]43[C@@H]65)C2)C1` [Compound 23], the 50% inhibitory concentration (IC50) came to 6 nM in experiment [1] (Table 1), 6 nM in experiment [1] (Table 3), 7 nM in experiment [2] (Table 1) and 7 nM in experiment [2] (Table 3).

As for `CC[C@]1(NC(=O)C(c2ccccc2)c2ccccc2)C[C@H]2CN(CCc3c([nH]c4ccccc34)[C@@](C(=O)OC)(c3cc4c(cc3OC)N(C)[C@H]3[C@@](O)(C(=O)OC)[C@H](OC(C)=O)[C@]5(CC)C=CCN6CC[C@]43[C@@H]65)C2)C1` [Compound 22], the IC50 in experiment [1] (Table 1) turned out to be 3800 nM; in experiment [2] (Table 1), 760 nM.

As to `CCC1(NC(=O)c2ccc(OC(F)F)cc2)CC2CN(CCc3c([nH]c4ccccc34)C(C(=O)OC)(c3cc4c(cc3OC)N(C)C3C(O)(C(=O)OC)C(OC(C)=O)C5(CC)C=CCN6CCC43C65)C2)C1` (centres unmarked) [Compound 81], the 50% inhibitory concentration (IC50) in experiment [1] (Table 2) was 1.7 nM; in experiment [2] (Table 2), 5.9 nM.

Consider `CCC1(NC(=O)c2ccc3c(c2)OCO3)CC2CN(CCc3c([nH]c4ccccc34)C(C(=O)OC)(c3cc4c(cc3OC)N(C)C3C(O)(C(=O)OC)C(OC(C)=O)C5(CC)C=CCN6CCC43C65)C2)C1` (centres unmarked) [Compound 174], for which the IC50 worked out at 0.8 nM in experiment [1] (Table 6) and 0.6 nM in experiment [2] (Table 6).

Take `CC[C@]1(NC(=O)C2CCCC2)C[C@H]2CN(CCc3c([nH]c4ccccc34)[C@@](C(=O)OC)(c3cc4c(cc3OC)N(C)[C@H]3[C@@](O)(C(=O)OC)[C@H](OC(C)=O)[C@]5(CC)C=CCN6CC[C@]43[C@@H]65)C2)C1` [Compound 19]: the IC50 in experiment [1] (Table 1) was 25 nM; in experiment [2] (Table 1) it was 30 nM.

Regarding `CC[C@]1(NC(=O)C2CCCCC2)C[C@H]2CN(CCc3c([nH]c4ccccc34)[C@@](C(=O)OC)(c3cc4c(cc3OC)N(C)[C@H]3[C@@](O)(C(=O)OC)[C@H](OC(C)=O)[C@]5(CC)C=CCN6CC[C@]43[C@@H]65)C2)C1` [Compound 20], the IC50 in experiment [1] (Table 1) came to 70 nM; in experiment [2] (Table 1), 55 nM.

Regarding `CCC(=O)NC1(CC)CC2CN(CCc3c([nH]c4ccccc34)C(C(=O)OC)(c3cc4c(cc3OC)N(C)C3C(O)(C(=O)OC)C(OC(C)=O)C5(CC)C=CCN6CCC43C65)C2)C1` (centres unmarked) [Compound 12], the IC50 in experiment [1] (Table 1) and in experiment [2] (Table 1) was 60 nM each time.

In the case of `CCC1(NC(=O)c2ccc([N+](=O)[O-])cc2)CC2CN(CCc3c([nH]c4ccccc34)C(C(=O)OC)(c3cc4c(cc3OC)N(C)C3C(O)(C(=O)OC)C(OC(C)=O)C5(CC)C=CCN6CCC43C65)C2)C1` (centres unmarked) [Compound 56], the half-inhibitory concentration (IC50) in experiment [1] (Table 2) and in experiment [2] (Table 2) was 6.1 nM each time.

As to `CCC1(NC(=O)c2ccc(OC)c(OC)c2)CC2CN(CCc3c([nH]c4ccccc34)C(C(=O)OC)(c3cc4c(cc3OC)N(C)C3C(O)(C(=O)OC)C(OC(C)=O)C5(CC)C=CCN6CCC43C65)C2)C1` (centres unmarked) [Compound 70], the concentration for half-maximal inhibition (IC50) in experiment [1] (Table 2) came to 0.07 nM; in experiment [2] (Table 2), 0.06 nM.

Consider `CC[C@]1(NC(=O)c2csc3ccccc23)C[C@H]2CN(CCc3c([nH]c4ccccc34)[C@@](C(=O)OC)(c3cc4c(cc3OC)N(C)[C@H]3[C@@](O)(C(=O)OC)[C@H](OC(C)=O)[C@]5(CC)C=CCN6CC[C@]43[C@@H]65)C2)C1` [Compound 164], for which the half-maximal inhibitory concentration (IC50) in experiment [1] (Table 6) amounted to 5.7 nM; in experiment [2] (Table 6), 5.2 nM.

With `CCOc1ccc(C(=O)NC2(CC)CC3CN(CCc4c([nH]c5ccccc45)C(C(=O)OC)(c4cc5c(cc4OC)N(C)C4C(O)(C(=O)OC)C(OC(C)=O)C6(CC)C=CCN7CCC54C76)C3)C2)cc1` (centres unmarked) [Compound 72], the IC50 in experiment [1] (Table 2) and in experiment [2] (Table 2) was 0.6 nM each time. In addition, the “potency relative to vinblastine (more potent)” value in experiment [1] came to 10 fold.

`CC[C@]1(NC(=O)c2ccc(C(C)(C)C)cc2)C[C@H]2CN(CCc3c([nH]c4ccccc34)[C@@](C(=O)OC)(c3cc4c(cc3OC)N(C)[C@H]3[C@@](O)(C(=O)OC)[C@H](OC(C)=O)[C@]5(CC)C=CCN6CC[C@]43[C@@H]65)C2)C1` [Compound 38]: the results for the half-inhibitory concentration (IC50) in experiment [1] (Table 2) and in experiment [2] (Table 2) were 1.9 nM and 0.6 nM, respectively.

Turning to `CC[C@]1(NC(=O)c2cccc(C(F)(F)F)c2)C[C@H]2CN(CCc3c([nH]c4ccccc34)[C@@](C(=O)OC)(c3cc4c(cc3OC)N(C)[C@H]3[C@@](O)(C(=O)OC)[C@H](OC(C)=O)[C@]5(CC)C=CCN6CC[C@]43[C@@H]65)C2)C1` [Compound 40], the half-inhibitory concentration (IC50) is 6.4 nM in experiment [1] (Table 2) and 6.2 nM in experiment [2] (Table 2).

Regarding `CCC1(NC(=O)c2ccc3ncccc3c2)CC2CN(CCc3c([nH]c4ccccc34)C(C(=O)OC)(c3cc4c(cc3OC)N(C)C3C(O)(C(=O)OC)C(OC(C)=O)C5(CC)C=CCN6CCC43C65)C2)C1` (centres unmarked) [Compound 150], the IC50 in experiment [1] (Table 6) and in experiment [2] (Table 6) was 0.6 nM in each case.

For the compound `CC[C@]1(NC(=O)c2ccc(C(C)C)cc2)C[C@H]2CN(CCc3c([nH]c4ccccc34)[C@@](C(=O)OC)(c3cc4c(cc3OC)N(C)[C@H]3[C@@](O)(C(=O)OC)[C@H](OC(C)=O)[C@]5(CC)C=CCN6CC[C@]43[C@@H]65)C2)C1` [Compound 32], the IC50 in experiment [1] (Table 2) is 6.4 nM; in experiment [2] (Table 2), 5.4 nM.

Take `CC[C@]1(NC(=O)c2cc3ccccc3s2)C[C@H]2CN(CCc3c([nH]c4ccccc34)[C@@](C(=O)OC)(c3cc4c(cc3OC)N(C)[C@H]3[C@@](O)(C(=O)OC)[C@H](OC(C)=O)[C@]5(CC)C=CCN6CC[C@]43[C@@H]65)C2)C1` [Compound 165]: the IC50 in experiment [1] (Table 6) is 1.9 nM; in experiment [2] (Table 6), 3.1 nM.

Regarding `CCC1(NC(=O)c2cccs2)CC2CN(CCc3c([nH]c4ccccc34)C(C(=O)OC)(c3cc4c(cc3OC)N(C)C3C(O)(C(=O)OC)C(OC(C)=O)C5(CC)C=CCN6CCC43C65)C2)C1` (centres unmarked) [Compound 136], in experiment [1], the “activity relative to 20′ benzamide Compound 24 (better)” value is recorded as “roughly 2 fold” and the “potency relative to vinblastine (more potent)” value is given as 10 fold. The IC50 in experiment [1] (Table 5) amounted to 0.6 nM. In experiment [2] (Table 5), this compound came in with an IC50 of 0.6 nM.

As for `CC[C@]1(NC(=O)c2ccc(OC)c(Cl)c2)C[C@H]2CN(CCc3c([nH]c4ccccc34)[C@@](C(=O)OC)(c3cc4c(cc3OC)N(C)[C@H]3[C@@](O)(C(=O)OC)[C@H](OC(C)=O)[C@]5(CC)C=CCN6CC[C@]43[C@@H]65)C2)C1` [Compound 92], the figures for the 50% inhibitory concentration (IC50) in experiment [1] (Table 2) and in experiment [2] (Table 2) were 5.1 nM and 3.7 nM, respectively.

For `CCC1(NS(=O)(=O)c2cccc([N+](=O)[O-])c2)CC2CN(CCc3c([nH]c4ccccc34)C(C(=O)OC)(c3cc4c(cc3OC)N(C)C3C(O)(C(=O)OC)C(OC(C)=O)C5(CC)C=CCN6CCC43C65)C2)C1` (centres unmarked) [Compound 182], the half-maximal inhibitory concentration (IC50) in experiment [1] (Table 7, C20′ sulfonamides) was 490 nM; in experiment [2] (Table 7, C20′ sulfonamides) it was 450 nM.

Regarding `CCC1(NC(=O)c2ccc3c(c2)OCCO3)CC2CN(CCc3c([nH]c4ccccc34)C(C(=O)OC)(c3cc4c(cc3OC)N(C)C3C(O)(C(=O)OC)C(OC(C)=O)C5(CC)C=CCN6CCC43C65)C2)C1` (centres unmarked) [Compound 175], the results for the IC50 in experiment [1] (Table 6) and in experiment [2] (Table 6) were 0.5 nM and 0.6 nM, respectively.

As for `CCC1(NC(=O)c2ccc(Oc3ccccc3)cc2)CC2CN(CCc3c([nH]c4ccccc34)C(C(=O)OC)(c3cc4c(cc3OC)N(C)C3C(O)(C(=O)OC)C(OC(C)=O)C5(CC)C=CCN6CCC43C65)C2)C1` (centres unmarked) [Compound 76], the 50% inhibitory concentration (IC50) worked out at 6.5 nM in experiment [1] (Table 2) and 5.2 nM in experiment [2] (Table 2).

In the case of `CC[C@]1(NC(=O)c2ccc(N(C)C(=O)OC(C)(C)C)cc2)C[C@H]2CN(CCc3c([nH]c4ccccc34)[C@@](C(=O)OC)(c3cc4c(cc3OC)N(C)[C@H]3[C@@](O)(C(=O)OC)[C@H](OC(C)=O)[C@]5(CC)C=CCN6CC[C@]43[C@@H]65)C2)C1` [Compound 63], the concentration for half-maximal inhibition (IC50) worked out at 3.9 nM in experiment [1] (Table 2) and 4.1 nM in experiment [2] (Table 2).

Consider `CCC1(NC(=O)c2ccsc2)CC2CN(CCc3c([nH]c4ccccc34)C(C(=O)OC)(c3cc4c(cc3OC)N(C)C3C(O)(C(=O)OC)C(OC(C)=O)C5(CC)C=CCN6CCC43C65)C2)C1` (centres unmarked) [Compound 135], for which the IC50 in experiment [1] (Table 5) turned out to be 0.7 nM; in experiment [2] (Table 5), 0.5 nM.
